Measured values: patent US20160000071A1, “PHOTODEGRADABLE, BIOCOMPATIBLE AND EFFICIENT NANO-ENCAPSULATED FORMULATION” (priority 2014, published 2016)
Marks after values point to notes of the source that are not given here.

Columns and labels:
[1] = test system: newly-ecdysed fifth instar larvae of G. pyloalis; assay: Leaf dip bioassay; assay type: in vivo, Glyphodes pyloalis Walker; conditions: for mortality at 50 ppm / mortality at 80 ppm / mortality at 126 ppm / mortality at 200 ppm / mortality at 316 ppm / mortality at 500 ppm: Glyphodes pyloalis, foliar
Experimental: (§1) The insects used in the present application is Glyphodes pyloalis Walker (Lepidoptera: Pyralidae) which was collected from infested mulberry orchards in the vicinity of Rasht, Iran. Mass rearing of insects was carried out in the laboratory under controlled conditions at 25±1° C., 70±5% RH and 16:8 L:D. Newly-ecdysed fifth instar larvae of G. pyloalis were used for the bioassay experiments. The Glyphodes pyloalis Walker hereinafter is referred to as G. pyloalis.
The toxicity of the encapsulated imidacloprid diluted in water for the newly-ecdysed fifth instar larvae of G. pyloalis was evaluated using leaf dip bioassay. The technical imidacloprid was dissolved in acetone and diluted to generate 6 serial dilutions with distilled water. Mulberry leaf discs with diameters of 3.5 cm were prepared, so that each petiole was placed in a vial containing water for providing moisture to the leaf discs for several days. These discs were then immersed in the dilutions for 45 seconds. Mortality was assessed after the treated larvae were maintained at 25±1° C., 70±10 R.H. for 24, 48, 72, 96 and 120 hours.

[2] = test system: newly ecdysed fifth instar larvae of G. pyloalis; assay: Topical bioassay; assay type: in vivo, Glyphodes pyloalis Walker; conditions: Glyphodes pyloalis
Experimental: as §1
To determine the efficacy of the encapsulated nano-IMI prepared using ethanol, a topical bioassay was performed. In the preliminary tests, 5 concentrations of bulk and nano-IMI were tested. […] Fifty larvae per concentration were used for all experiments and each experiment was replicated 4 times; 1 μl of the desired concentration was topically applied to the metathoracic tergum. The controls received 1 μl of ethanol in the same way. The treated larvae were allowed to eat fresh leaves. After 24, 48, 72 and 96 h, the numbers of dead larvae were recorded.

[3] = Photocatalytic degradation of indoxacarb under UV light; assay type: physicochemical
[4] = Photo degradation of indoxacarb in the batch reactor under natural light

O=[N+]([O-])NC1=NCCN1Cc1ccc(Cl)nc1 [Imidacloprid]
mortality at 50 ppm ([1]; 24 h after treatment): 2.5 ± 2%
mortality at 50 ppm ([1]; 48 h after treatment): 15.6%
mortality at 50 ppm ([1]; 72 h after treatment): 27%
mortality at 50 ppm ([1]; 96 h after treatment): 42.5%
mortality at 50 ppm ([1]; 120 h after treatment): 46.2 ± 2.39%
mortality at 80 ppm ([1]; 24 h after treatment): 8.82%
mortality at 80 ppm ([1]; 48 h after treatment): 23.8%
mortality at 80 ppm ([1]; 72 h after treatment): 39.6 ± 3.33%
mortality at 80 ppm ([1]; 96 h after treatment): 57.8 ± 3.17%
mortality at 80 ppm ([1]; 120 h after treatment): 58.8 ± 3.75%
mortality at 126 ppm ([1]; 24 h after treatment): 21.9 ± 3.07%
mortality at 126 ppm ([1]; 48 h after treatment): 43.8 ± 2.39%
mortality at 126 ppm ([1]; 72 h after treatment): 58.6 ± 3.41%
mortality at 126 ppm ([1]; 96 h after treatment): 76.2 ± 3.17%
mortality at 126 ppm ([1]; 120 h after treatment): 78.8 ± 3.75%
mortality at 200 ppm ([1]; 24 h after treatment): 34.2 ± 2.09%
mortality at 200 ppm ([1]; 48 h after treatment): 55%
mortality at 200 ppm ([1]; 72 h after treatment): 71.7 ± 2.04%
mortality at 200 ppm ([1]; 96 h after treatment): 78.8 ± 2.39%
mortality at 200 ppm ([1]; 120 h after treatment): 80%
mortality at 316 ppm ([1]; 24 h after treatment): 39.2 ± 4.13%
mortality at 316 ppm ([1]; 48 h after treatment): 60%
mortality at 316 ppm ([1]; 72 h after treatment): 75%
mortality at 316 ppm ([1]; 96 h after treatment): 84.2 ± 3.37%
mortality at 316 ppm ([1]; 120 h after treatment): 86.2 ± 2.39%
mortality at 500 ppm ([1]; 24 h after treatment): 57.5 ± 2.04%
mortality at 500 ppm ([1]; 48 h after treatment): 77.6 ± 4%
mortality at 500 ppm ([1]; 72 h after treatment): 86.1 ± 1.63%
mortality at 500 ppm ([1]; 96 h after treatment): 100%
mortality at 500 ppm ([1]; 120 h after treatment): 100%
mortality at 22 ppm ([2]; 24 h after treatment): 18.1%
mortality at 22 ppm ([2]; 48 h after treatment): 20%
mortality at 22 ppm ([2]; 72 h after treatment): 22%
mortality at 22 ppm ([2]; 96 h after treatment): 24%
mortality at 32 ppm ([2]; 24 h after treatment): 33%
mortality at 32 ppm ([2]; 48 h after treatment): 35%
mortality at 32 ppm ([2]; 72 h after treatment): 36.5%
mortality at 32 ppm ([2]; 96 h after treatment): 38.2%
mortality at 47.5 ppm ([2]; 24 h after treatment): 50%
mortality at 47.5 ppm ([2]; 48 h after treatment): 52.1%
mortality at 47.5 ppm ([2]; 72 h after treatment): 54%
mortality at 47.5 ppm ([2]; 96 h after treatment): 56%
mortality at 60 ppm ([2]; 24 h after treatment): 76%
mortality at 60 ppm ([2]; 48 h after treatment): 78%
mortality at 60 ppm ([2]; 72 h after treatment): 80.4%
mortality at 60 ppm ([2]; 96 h after treatment): 82%

COC(=O)N(C(=O)N1CO[C@@]2(C(=O)OC)Cc3cc(Cl)ccc3C2=N1)c1ccc(OC(F)(F)F)cc1 [Indoxacarb, lndoxacarb]
% mortality ([1]; 0.25 ppm, 24 h after treatment): 21 ± 2.91^g %
% mortality ([1]; 0.25 ppm, 72 h after treatment): 56.4 ± 8.84^bcdef %
% mortality ([1]; 0.25 ppm, 96 h after treatment): 61 ± 8.73^bcdef %
% mortality ([1]; 0.25 ppm, 120 h after treatment): 62 ± 7.62^bcdef %
% mortality ([1]; 0.45 ppm, 24 h after treatment): 34 ± 10.29^efg %
% mortality ([1]; 0.45 ppm, 48 h after treatment): 47.9 ± 10^cdefg %
% mortality ([1]; 0.45 ppm, 72 h after treatment): 59 ± 19.97^bcdef %
% mortality ([1]; 0.45 ppm, 96 h after treatment): 63 ± 12.32^bcdef %
% mortality ([1]; 0.45 ppm, 120 h after treatment): 64 ± 12.67^bcdef %
% mortality ([1]; 0.82 ppm, 24 h after treatment): 34.32 ± 7.45^efg %
% mortality ([1]; 0.82 ppm, 48 h after treatment): 51.5 ± 9.25^cdefg %
% mortality ([1]; 0.82 ppm, 72 h after treatment): 63.58 ± 7.84^bcdef %
% mortality ([1]; 0.82 ppm, 96 h after treatment): 76 ± 2.73^abcd %
% mortality ([1]; 0.82 ppm, 120 h after treatment): 77 ± 2.23^abcd %
% mortality ([1]; 1.5 ppm, 24 h after treatment): 44.16 ± 8.22^defg %
% mortality ([1]; 1.5 ppm, 48 h after treatment): 62 ± 2.23^bcdef %
% mortality ([1]; 1.5 ppm, 72 h after treatment): 74.4 ± 2.58^abcd %
% mortality ([1]; 1.5 ppm, 96 h after treatment): 83 ± 2.23^abc %
% mortality ([1]; 1.5 ppm, 120 h after treatment): 83.6 ± 2.07^abc %
% mortality ([1]; 2.8 ppm, 24 h after treatment): 51.32 ± 8.9^cdefg %
% mortality ([1]; 2.8 ppm, 48 h after treatment): 68.82 ± 5.05^abcde %
% mortality ([1]; 2.8 ppm, 72 h after treatment): 76.66 ± 4.27^abcd %
% mortality ([1]; 2.8 ppm, 96 h after treatment): 88.32 ± 6.55^ab %
% mortality ([1]; 2.8 ppm, 120 h after treatment): 88.4 ± 6.57^ab %
% mortality ([1]; 4 ppm, 24 h after treatment): 55 ± 3.87^bcdefg %
% mortality ([1]; 4 ppm, 48 h after treatment): 71.98 ± 2.92^abcd %
% mortality ([1]; 4 ppm, 72 h after treatment): 88.32 ± 7.57^ab %
% mortality ([1]; 4 ppm, 96 h after treatment): 100%
% mortality ([1]; 4 ppm, 120 h after treatment): 100 ± 0^a %
% degradation of indoxacarb ([3]; 10 ppm, 1 h): 2.3%
% degradation of indoxacarb ([3]; 10 ppm, 3 h): 7.44%
% degradation of indoxacarb ([3]; 10 ppm, 6 h): 10.26%
% degradation of indoxacarb ([3]; 10 ppm, 18 h): 13.07%
% degradation of indoxacarb ([3]; 20 ppm, 1 h): 6.24%
% degradation of indoxacarb ([3]; 20 ppm, 3 h): 12.49%
% degradation of indoxacarb ([3]; 20 ppm, 6 h): 18.9%
% degradation of indoxacarb ([3]; 20 ppm, 18 h): 22.03%
% degradation of indoxacarb ([3]; 30 ppm, 1 h): 9.32%
% degradation of indoxacarb ([3]; 30 ppm, 3 h): 13.07%
% degradation of indoxacarb ([3]; 30 ppm, 6 h): 23.34%
% degradation of indoxacarb ([3]; 30 ppm, 18 h): 25.21%
% degradation of indoxacarb ([3]; 40 ppm, 1 h): 11.47%
% degradation of indoxacarb ([3]; 40 ppm, 3 h): 15.04%
% degradation of indoxacarb ([3]; 40 ppm, 6 h): 24.26%
% degradation of indoxacarb ([3]; 40 ppm, 18 h): 25.39%
% degradation of indoxacarb ([3]; 50 ppm, 1 h): 9.23%
% degradation of indoxacarb ([3]; 50 ppm, 3 h): 13.34%
% degradation of indoxacarb ([3]; 50 ppm, 6 h): 21.02%
% degradation of indoxacarb ([3]; 50 ppm, 18 h): 21.02%
maximum amount of indoxacarb removed / degraded ([3]; after approximately 18 h, over all concentrations (10-50 ppm)): about 25%
% photo degradation of indoxacarb ([4]; 10 ppm, 2 d): 16.33%
% photo degradation of indoxacarb ([4]; 10 ppm, 4 d): 19.02%
% photo degradation of indoxacarb ([4]; 10 ppm, 6 d): 21.21%
% photo degradation of indoxacarb ([4]; 10 ppm, 8 d): 23.4%
% photo degradation of indoxacarb ([4]; 10 ppm, 10 d): 30.47%
% photo degradation of indoxacarb ([4]; 20 ppm, 2 d): 22.26%
% photo degradation of indoxacarb ([4]; 20 ppm, 4 d): 23.47%
% photo degradation of indoxacarb ([4]; 20 ppm, 6 d): 25.17%
% photo degradation of indoxacarb ([4]; 20 ppm, 8 d): 29.28%
% photo degradation of indoxacarb ([4]; 20 ppm, 10 d): 33.4%
% photo degradation of indoxacarb ([4]; 30 ppm, 2 d): 26.23%
% photo degradation of indoxacarb ([4]; 30 ppm, 4 d): 29.2%
% photo degradation of indoxacarb ([4]; 30 ppm, 6 d): 31.18%
% photo degradation of indoxacarb ([4]; 30 ppm, 8 d): 33.16%
% photo degradation of indoxacarb ([4]; 30 ppm, 10 d): 36.13%
% photo degradation of indoxacarb ([4]; 40 ppm, 2 d): 22.26%
% photo degradation of indoxacarb ([4]; 40 ppm, 4 d): 29.28%
% photo degradation of indoxacarb ([4]; 40 ppm, 6 d): 31.34%
% photo degradation of indoxacarb ([4]; 40 ppm, 8 d): 36.3%
% photo degradation of indoxacarb ([4]; 40 ppm, 10 d): 39.21%
% photo degradation of indoxacarb ([4]; 50 ppm, 2 d): 21.23%
% photo degradation of indoxacarb ([4]; 50 ppm, 4 d): 26.35%
% photo degradation of indoxacarb ([4]; 50 ppm, 6 d): 30.18%
% photo degradation of indoxacarb ([4]; 50 ppm, 8 d): 32.23%
% photo degradation of indoxacarb ([4]; 50 ppm, 10 d): 37.38%
